Measurements published in ChEMBL document CHEMBL4651402, “Screening of ~5500 FDA-approved drugs and clinical candidates for anti-SARS-CoV-2 activity” (2021).

System: SARS-CoV-2
Assay: microbe, parasite or virus in culture
Conditions: Severe acute respiratory syndrome coronavirus 2, Vero C1008, 48 h

| SMILES | IC50 | IC50 (read-out: pIC50 (converted)) |
| --- | --- | --- |
| CC#CC(=O)N[C@H]1CCCN(c2c(F)cc(C(N)=O)c3[nH]c(C)c(C)c23)C1 [BRANEBRUTINIB] | > 20 µM | > 20 µM |
| NC(N)=NOCC[C@H](N)C(=O)O [CANAVANINE] | > 20 µM | > 20 µM |
| Nc1ccc(S(=O)(=O)Nc2nccs2)cc1 [SULFATHIAZOLE] | > 20 µM | > 20 µM |
| CN(C)CCCSC(=N)N | > 20 µM | > 20 µM |
| O=C(O)CCCO [OXYBATE] | > 20 µM | > 20 µM |
| O=C1CCCN1CC1CCN(c2ccnc(C(F)(F)F)n2)CC1 | > 20 µM | > 20 µM |
| COc1ccc2c3c1O[C@H]1C[C@@H](O)C=C[C@@]31CCN(C)C2 [GALANTAMINE] | > 20 µM | > 20 µM |
| COC1=CC(=O)O[C@@H](/C=C/c2ccccc2)C1 (racemic) [KAVAIN] | > 20 µM | > 20 µM |
| O=C(O)CNC(=O)C1C(=O)N(C2CCCCC2)C(=O)N(C2CCCCC2)C1=O [DAPRODUSTAT] | > 20 µM | > 20 µM |
| COc1ccc2cccc(CCNC(C)=O)c2c1 [AGOMELATINE] | > 20 µM | > 20 µM |
| C[N+]1(C)CCC[C@H]1C(=O)[O-] | > 20 µM | > 20 µM |
| CN1CCC(O)(c2ccc(F)cc2)C(C(=O)c2ccc(F)cc2)C1 (configuration not stated) [FLAZALONE] | > 20 µM | > 20 µM |
| Cc1ccc(O)cc1 [p-CRESOL] | > 20 µM | > 20 µM |
| CNc1ccc(-c2ccc3cc(OC[C@H](O)CF)ccc3n2)cc1 | > 20 µM | > 20 µM |
| CCN(c1ccccc1)c1cc(NC)[n+](C)c(C)n1 | > 20 µM | > 20 µM |
| CCC[C@H](NC(=O)[C@@H]1[C@H]2CCC[C@H]2CN1C(=O)[C@@H](NC(=O)[C@@H](NC(=O)c1cnccn1)C1CCCCC1)C(C)(C)C)C(=O)C(=O)NC1CC1 | > 20 µM | > 20 µM |
| NCC1CCC(C(=O)O)CC1 (configuration not stated) | > 20 µM | > 20 µM |
| CNC(=O)c1cccc(-c2ccc3c(N4CCOC[C@@H]4C)nc(N4CCOC[C@@H]4C)nc3n2)c1 [VISTUSERTIB] | > 20 µM | > 20 µM |
| C[C@]12CCCN1CC1=NNC(=O)c3cc(F)cc4[nH]c2c1c34 [PAMIPARIB] | > 20 µM | > 20 µM |

| SMILES | IC50 | IC50 (read-out: pIC50 (converted)) |
| --- | --- | --- |
| Cc1cc(Nc2cc(N3CCN(C)CC3)nc(Sc3ccc(NC(=O)C4CC4)cc3)n2)n[nH]1 [TOZASERTIB] | > 20 µM | > 20 µM |
| CCc1nc(C(N)=O)c(Nc2ccc(N3CCC(N4CCN(C)CC4)CC3)c(OC)c2)nc1NC1CCOCC1 [GILTERITINIB] | > 20 µM | > 20 µM |
| CCc1cccc(CC)c1NC(=O)CN(CC(=O)O)CC(=O)O [ETIFENIN] | > 20 µM | > 20 µM |
| CCN(CC)CCNC(C(=O)OCCC(C)C)c1ccccc1 (configuration not stated) [CAMYLOFIN] | > 20 µM | > 20 µM |
| Cn1c(=O)c2c(ncn2CC(O)CO)n(C)c1=O (configuration not stated) [DYPHYLLINE] | > 20 µM | > 20 µM |
| Cc1cccc(N2CC(CO)OC2=O)c1 (configuration not stated) [TOLOXATONE] | > 20 µM | > 20 µM |
| CN1CCc2cc(Cl)c(O)cc2[C@H]2c3ccccc3CC[C@@H]21 [ECOPIPAM] | > 20 µM | > 20 µM |
| Clc1ccc(CCC(Cn2ccnc2)Sc2c(Cl)cccc2Cl)cc1 (configuration not stated) [BUTOCONAZOLE] | > 20 µM | > 20 µM |
| CNC(=O)Oc1ccc2c(c1)[C@]1(C)CCN(C)C1N2C (some centres not stated) | > 20 µM | > 20 µM |
| CC(C)NCCCC1(C(N)=O)c2ccccc2-c2ccccc21 [INDECAINIDE] | > 20 µM | > 20 µM |
| CCN1C[C@]2(COC)CC[C@H](O)[C@]34C5C[C@@H]6[C@@H](OC)C[C@@](O)(C5[C@H]6OC)[C@@](O)([C@H]13)[C@@H](OC)C24 (some centres not stated) | > 20 µM | > 20 µM |
| N#CC1(c2ccc(NC(=O)c3cccnc3NCc3ccncc3)cc2)CCCC1 [RIVOCERANIB] | > 20 µM | > 20 µM |
| COc1ccc2[nH]c([S@@+]([O-])Cc3ncc(C)c(OC)c3C)nc2c1 [ESOMEPRAZOLE] | > 20 µM | > 20 µM |
| Nc1nc(N)c2nc(CNc3ccc(C(=O)N[C@@H](CCC(=O)O)C(=O)O)cc3)cnc2n1 [AMINOPTERIN] | > 20 µM | > 20 µM |
| CCCCN(CCCC)C(C(N)=O)c1ccc(OC)cc1 (configuration not stated) [AMBUCETAMIDE] | > 20 µM | > 20 µM |
| Cc1cn2nc([C@H]3CCCCN3C(=O)c3cc(Cl)ccc3NS(C)(=O)=O)cc2nc1N1CC[C@H](N)C1 | > 20 µM | > 20 µM |
| C[N+]1(CCC(C(N)=O)(c2ccccc2)c2ccccc2)CCCCCC1 [BUZEPIDE] | > 20 µM | > 20 µM |
| C=CCC1(C2C=CCCC2)C(=O)NC(=S)NC1=O (configuration not stated) [THIALBARBITAL] | > 20 µM | > 20 µM |
| COc1cc2c(cc1OC)CC(=O)N(CCCN(C)C[C@H]1Cc3cc(OC)c(OC)cc31)CC2 [IVABRADINE] | > 20 µM | > 20 µM |

| SMILES | IC50 | IC50 (read-out: pIC50 (converted)) |
| --- | --- | --- |
| CCC1(C)CC(=O)NC1=O (configuration not stated) [ETHOSUXIMIDE] | > 20 µM | > 20 µM |
| N#CCNC(=O)c1ccc(-c2ccnc(Nc3ccc(N4CCOCC4)cc3)n2)cc1 [MOMELOTINIB] | > 20 µM | > 20 µM |
| CNCC(O)c1ccc(O)c(O)c1 (configuration not stated) [RACEPINEPHRINE] | > 20 µM | > 20 µM |
| O=c1[nH]c(=O)n([C@H]2C[C@H](O)[C@@H](CO)O2)cc1F [FLOXURIDINE] | > 20 µM | > 20 µM |
| CC(=O)OC1CC(OC2C(O)CC(OC3C(O)CC(OC4CCC5(C)C(CCC6C5CC(O)C5(C)C(C7=CC(=O)OC7)CCC65O)C4)OC3C)OC2C)OC(C)C1OC1OC(CO)C(O)C(O)C1O (configuration not stated) | > 20 µM | > 20 µM |
| C#CCC/C(O)=C(\C#N)C(=O)Nc1ccc(C(F)(F)F)cc1 | > 20 µM | > 20 µM |
| CN1C(=O)CC(=O)N(c2ccccc2)c2cc(Cl)ccc21 [CLOBAZAM] | > 20 µM | > 20 µM |
| CC12C=CC(=O)C=C1CCC1C2C(=O)CC2(C)C1CC[C@]2(O)C(=O)CO (some centres not stated) | > 20 µM | > 20 µM |
| NC1=NCC(c2ccc(C(F)(F)F)cc2)O1 (configuration not stated) [FLUMINOREX] | > 20 µM | > 20 µM |
| O=P1(N(CCCl)CCCl)NCCCO1 (configuration not stated) [CYCLOPHOSPHAMIDE ANHYDROUS] | > 20 µM | > 20 µM |
| CC(C)(C)NC(=O)[C@H]1CC[C@H]2[C@H]3CC[C@H]4NC(=O)C=C[C@]4(C)[C@H]3CC[C@]12C | > 20 µM | > 20 µM |
| Nc1ccc(C(=O)O)cc1 [AMINOBENZOIC ACID] | > 20 µM | > 20 µM |
| CNCCc1ccccn1 [BETAHISTINE] | > 20 µM | > 20 µM |
| CC1CCc2c(N3CCC(O)CC3)c(F)cc3c(=O)c(C(=O)O)cn1c23 (configuration not stated) [NADIFLOXACIN] | > 20 µM | > 20 µM |
| CCc1cccc2cc(C(O)CNC(C)(C)C)oc12 (configuration not stated) [BUFURALOL] | > 20 µM | > 20 µM |
| CN[C@H]1[C@H](O)[C@H](O[C@@H]2[C@@H](O)[C@H](O[C@H]3O[C@H]([C@@H](C)O)[C@@H](O)[C@H](O)[C@H]3N)[C@@H](N)C[C@H]2N)OC[C@@]1(C)O | > 20 µM | > 20 µM |
| C[C@@H]1CCC[C@H](C)N1 | > 20 µM | > 20 µM |
| CCN1C(=S)N(c2ccc(N3CCN(c4ccc(O)cc4)CC3)cc2)C(=O)C1(C)C | > 20 µM | > 20 µM |
